This note sets out measurements from ChEMBL document CHEMBL1127334, “Discovery of new non-phospholipid inhibitors of the secretory phospholipases A2” (J Med Chem, 1994).

The experiment addresses T1, Phospholipase A2, membrane associated (Homo sapiens, UniProt P14555).
T1 sequence (P14555 whole entry): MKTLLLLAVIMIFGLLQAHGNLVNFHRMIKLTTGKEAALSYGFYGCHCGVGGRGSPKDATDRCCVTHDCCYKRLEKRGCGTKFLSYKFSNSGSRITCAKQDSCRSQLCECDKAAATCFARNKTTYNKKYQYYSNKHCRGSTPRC
Description: Compound was tested for in vitro activity against S-phospholipase A2 (s-PLA2) isolated from human platelets.
Consider `O=C(O)C[C@@H](CSc1ccc(Cc2ccccc2)cc1)NC(=O)CCCCCCc1ccccc1`, for which inhibition was half-maximal at 0.065 µM (IC50).
Next, `CCCCCC/C=C/CC(=O)N[C@@H](CCC(=O)O)CSc1ccc2ccccc2c1`: 1.85 µM; `CCCCCC/C=C/CC(=O)N[C@H](CCC(=O)O)CSc1ccc2ccccc2c1`: 12 µM; `CCCCCC/C=C/CC(=O)N[C@H](CSc1ccc(Cc2ccccc2)cc1)CC(=O)O`: 3.8 µM.
